A word on the IC50: it is the concentration that gives 50% inhibition.

Where two headings read alike, the source gives them in different places.

The test system of assay [1] is MV-4-11 human acute myeloid leukemia. The assay is described as follows: MV-4-11 CCK-8 proliferation assay. The assay is classed as cell-based. To be noted: Homo sapiens, MV4-11; MV-4-11 cells, 72 hr. In a few lines:
(§1)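 CCK-8 absorbance read-out, with inhibition expressed against DMSO-treated cells after subtracting a cell-free DMSO medium blank. Compounds tested over a 3-fold dilution series spanning 20 μM to 1.02 nM; lines grown essentially as ATCC recommends.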
In general terms: Tetrazolium assays rely on reduction of a dye to a coloured formazan, in cell work by metabolically active cells.

Assay [2] addresses T1, HSP90α protein (Homo sapiens, UniProt P07900).
T1 construct: purchased BPS Bioscience #50298
The assay is described as follows: HSP90α-binding FP (BODIPY) assay. To be noted: FP competition with BODIPY-labeled RNK04010. As to the method:
Binding of test compounds to HSP90α protein was measured by fluorescent polarization (FP) using the HSP90α (N-terminal) Assay Kit (BPS Bioscience, #50298), following the manufacturer's instructions, except as noted. Fluorescently labeled HSP90-binding compounds, either the provided FITC-geldanamycin (5 nM final concentration) or RNK04010, a triazolone-based HSP90 binding small molecule labeled with BODIPY through a piperazine-phenyl linker (5 nM final concentration) were employed. A 2.5-fold serial dilution of each test compound ranging from 20 μM to 5.2 nM was assayed for binding to HSP90α. After the final step of adding HSP90α protein to each assay well, plates were mixed by brief shaking, incubated at 25° C. for 120 min for FITC-geldanamycin or 300 min for RNK04010, and fluorescence was measured using a PerkinElmer EnVision Plate Reader.

Assay [3] has as its system U-87 MG human glioblastoma. The assay is described as follows: U87 MG CCK-8 proliferation assay. The assay is classed as cell-based. Particulars: Homo sapiens, U-87 MG cells, read-out: U87MG CCK-8. In a few lines:
as §1

On to `CCOc1cc(N2CCC(C(=O)N3CCC(CN4CCC(COc5ccc(Nc6cc(-n7nc(C(F)(F)F)c8c7CC(C)(C)CC8=O)ccc6C(N)=O)cc5)CC4)CC3)CC2)ccc1Nc1ncc2c(n1)N(S(C)(=O)=O)c1ccccc1C(=O)N2C` [Compound 137, 4-(6,6-dimethyl-4-oxo-3-(trifluoromethyl)-4,5,6,7-tetrahydro-1H-indazol-1-yl)-2-((4-((1-((1-(1-(3-ethoxy-4-((5-methyl-11-(methylsulfonyl)-6-oxo-6,11-dihydro-5H-benzo[e]pyrimido[5,4-b][1,4]diazepin-2-yl)amino)phenyl)piperidine-4-carbonyl)piperidin-4-yl)methyl)piperidin-4yl)methoxy)phenyl)amino)benzamide], for which, in assay [1], the EC50 is 100 to 1000 nM. The compound also yielded an IC50 in assay [2] above 1000 nM.

As for `CCOc1cc(N2CCC(C(=O)NCCOCCOCCOc3ccc(Nc4cc(-n5nc(C(F)(F)F)c6c5CC(C)(C)CC6=O)ccc4C(N)=O)cc3)CC2)ccc1Nc1ncc2c(n1)N(S(C)(=O)=O)c1ccccc1C(=O)N2C` [Compound 139, N-(2-(2-(2-(4-((2-carbamoyl-5-(6,6-dimethyl-4-oxo-3-(trifluoromethyl)-4,5,6,7-tetrahydro-1H-indazol-1-yl)phenyl)amino)phenoxy)ethoxy)ethoxy)ethyl)-1-(3-ethoxy-4-((5-methyl-11-(methylsulfonyl)-6-oxo-6,11-dihydro-5H-benzo[e]pyrimido[5,4-b][1,4]diazepin-2-yl)amino)phenyl)piperidine-4-carboxamide], in assay [1], the EC50 was 100 to 1000 nM. Also, the IC50 in assay [2] is above 1000 nM.

As for `CCOc1cc(N2CCC(C(=O)NCCOCCOc3ccc(-n4c(O)nnc4-c4cc(CC)c(O)cc4O)cc3)CC2)ccc1Nc1ncc2c(n1)N(C)c1ccccc1C(=O)N2C` [Compound 014, 1-(4-((5,11-dimethyl-6-oxo-6,11-dihydro-5H-benzo[e]pyrimido[5,4-b][1,4]diazepin-2-yl)amino)-3-ethoxyphenyl)-N-(2-(2-(4-(3-(5-ethyl-2,4-dihydroxyphenyl)-5-hydroxy-4H-1,2,4-triazol-4-yl)phenoxy)ethoxy)ethyl)piperidine-4-carboxamide], the EC50 is 100 to 1000 nM in assay [1] and 100 to 1000 nM in assay [3] (U-87 MG, 72 h).

Take `CCOc1cc(N2CCC(C(=O)NCCCOc3ccc(-c4ccc(NC(=O)c5ccc(OC)c(-c6cccc(OC)c6)c5)cc4)c(OCCCN(C)C)c3)CC2)ccc1Nc1ncc2c(n1)N(C)c1ccccc1C(=O)N2C` [Compound 152, N-(3-((4′-(3′,6-dimethoxy-[1,1′-biphenyl]-3-carboxamido)-2-(3-(dimethylamino)propoxy)-[1,1′-biphenyl]-4-yl)oxy)propyl)-1-(4-((5,11-dimethyl-6-oxo-6,11-dihydro-5H-benzo[e]pyrimido[5,4-b][1,4]diazepin-2-yl)amino)-3-ethoxyphenyl)piperidine-4-carboxamide]: the EC50 in assay [1] is above 1000 nM; in assay [3] (U-87 MG, 72 h), above 1000 nM.

On to `CCOc1cc(N2CCC(CN3CCC(CN4CCN(Cc5ccc(-n6c(C(=O)NC(C)C(F)(F)F)nnc6-c6cc(C(C)C)c(O)cc6O)cc5)CC4)CC3)CC2)ccc1Nc1ncc2c(n1)N(S(C)(=O)=O)c1ccccc1C(=O)N2C` (stereo not drawn) [Compound 181, 5-(2,4-dihydroxy-5-isopropylphenyl)-4-(4-((4-((1-((1-(3-ethoxy-4-((5-methyl-11-(methylsulfonyl)-6-oxo-6,11-dihydro-5H-benzo[e]pyrimido[5,4-b][1,4]diazepin-2-yl)amino)phenyl)piperidin-4-yl)methyl)piperidin-4-yl)methyl)piperazin-1-yl)methyl)phenyl)-N-(1,1,1-trifluoropropan-2-yl)-4H-1,2,4-triazole-3-carboxamide], for which the EC50 was below 100 nM in assay [1] and 100 to 1000 nM in assay [3] (U-87 MG, 72 h).

As for `CCOc1cc(N2CCC(C(=O)N3CCN(Cc4ccc(-n5c(C(=O)NCC(F)(F)C(F)(F)F)nnc5-c5cc(C(C)C)c(O)cc5O)cc4)CC3)CC2)ccc1Nc1ncc2c(n1)N(C)c1ccccc1C(=O)N2C` [Compound 173, 5-(2,4-dihydroxy-5-isopropylphenyl)-4-(4-((4-(1-(4-((5,11-dimethyl-6-oxo-6,11-dihydro-5H-benzo[e]pyrimido[5,4-b][1,4]diazepin-2-yl)amino)-3-ethoxyphenyl)piperidine-4-carbonyl)piperazin-1-yl)methyl)phenyl)-N-(2,2,3,3,3-pentafluoropropyl)-4H-1,2,4-triazole-3-carboxamide], the EC50 in assay [1] was below 100 nM; in assay [3] (U-87 MG, 72 h), below 100 nM.

Turning to `CCOc1cc(N2CCC(CN3CCN(Cc4ccc(-n5c(C(=O)NC(C)C(F)(F)F)nnc5-c5cc(CC)c(O)cc5O)cc4)CC3)CC2)ccc1Nc1ncc2c(n1)N(C1CCCC1)c1ccccc1C(=O)N2C` (stereo not drawn) [Compound 186, 4-(4-((4-((1-(4-((11-cyclopentyl-5-methyl-6-oxo-6,11-dihydro-5H-benzo[e]pyrimido[5,4-b][1,4]diazepin-2-yl)amino)-3-ethoxyphenyl)piperidin-4-yl)methyl)piperazin-1-yl)methyl)phenyl)-5-(5-ethyl-2,4-dihydroxyphenyl)-N-(1,1,1-trifluoropropan-2-yl)-4H-1,2,4-triazole-3-carboxamide], the EC50 in assay [1] was 100 to 1000 nM; in assay [3] (U-87 MG, 72 h), above 1000 nM.

On to `CCOc1cc(N2CCC(C(=O)N3CCC(CN4CCN(Cc5ccc(-n6c(C(=O)NC(C)C(F)(F)F)nnc6-c6cc(CC)c(O)cc6OC(=O)C(C)C)cc5)CC4)CC3)CC2)ccc1Nc1ncc2c(n1)N(S(C)(=O)=O)c1ccccc1C(=O)N2C` (stereo not drawn) [Compound 162, 2-(4-(4-((4-((1-(1-(3-ethoxy-4-((5-methyl-11-(methylsulfonyl)-6-oxo-6,11-dihydro-5H-benzo[e]pyrimido[5,4-b][1,4]diazepin-2-yl)amino)phenyl)piperidine-4-carbonyl)piperidin-4-yl)methyl)piperazin-1-yl)methyl)phenyl)-5-((1,1,1-trifluoropropan-2-yl)carbamoyl)-4H-1,2,4-triazol-3-yl)-4-ethyl-5-hydroxyphenyl isobutyrate], for which the EC50 lay in the range of 100 to 1000 nM in assay [1] and 100 to 1000 nM in assay [3] (U-87 MG, 72 h).

With `CCOc1cc(N2CCC(C(=O)N3CCC(Oc4ccc(-c5ccc(NC(=O)c6ccc(OC)c(-c7cccc(OC)c7)c6)cc5)cc4)CC3)CC2)ccc1Nc1ncc2c(n1)N(S(C)(=O)=O)c1ccccc1C(=O)N2C` [Compound 144, N-(4′-((1-(1-(3-ethoxy-4-((5-methyl-11-(methylsulfonyl)-6-oxo-6,11-dihydro-5H-benzo[e]pyrimido[5,4-b][1,4]diazepin-2-yl)amino)phenyl)piperidine-4-carbonyl)piperidin-4-yl)oxy)-[1,1′-biphenyl]-4-yl)-3′,6-dimethoxy-[1,1′-biphenyl]-3-carboxamide], the EC50 in assay [1] is above 1000 nM; in assay [3] (U-87 MG, 72 h), above 1000 nM.

As to `CCOc1cc(N2CCC(CN3CCN(Cc4ccc(-n5c(C(=O)NC(C)C(F)(F)F)nnc5-c5cc(CC)c(O)cc5O)cc4)CC3)CC2)ccc1Nc1ncc2c(n1)N(S(C)(=O)=O)c1ccccc1C(=O)N2C` (stereo not drawn) [Compound 185, 4-(4-((4-((1-(3-ethoxy-4-((5-methyl-11-(methylsulfonyl)-6-oxo-6,11-dihydro-5H-benzo[e]pyrimido[5,4-b][1,4]diazepin-2-yl)amino)phenyl)piperidin-4-yl)methyl)piperazin-1-yl)methyl)phenyl)-5-(5-ethyl-2,4-dihydroxyphenyl)-N-(1,1,1-trifluoropropan-2-yl)-4H-1,2,4-triazole-3-carboxamide], the EC50 in assay [1] was below 100 nM; in assay [3] (U-87 MG, 72 h) it was 100 to 1000 nM.

With `CCOc1cc(N2CCC(C(=O)N3CCN(Cc4ccc(-n5c(C(=O)NCC(F)(F)C(F)(F)F)nnc5-c5cc(C(C)C)c(O)cc5O)cc4)CC3)CC2)ccc1Nc1ncc2c(n1)N(S(C)(=O)=O)c1ccccc1C(=O)N2C` [Compound 175, 5-(2,4-dihydroxy-5-isopropylphenyl)-4-(4-((4-(1-(3-ethoxy-4-((5-methyl-11-(methylsulfonyl)-6-oxo-6,11-dihydro-5H-benzo[e]pyrimido[5,4-b][1,4]diazepin-2-yl)amino)phenyl)piperidine-4-carbonyl)piperazin-1-yl)methyl)phenyl)-N-(2,2,3,3,3-pentafluoropropyl)-4H-1,2,4-triazole-3-carboxamide], the EC50 in assay [1] was below 100 nM; in assay [3] (U-87 MG, 72 h), below 100 nM.

For the compound `CCOc1cc(N2CCC(C(=O)N3CCN(Cc4ccc(-n5c(O)nnc5-c5cc(C(C)C)c(OP(=O)(O)O)cc5O)cc4)CC3)CC2)ccc1Nc1ncc2c(n1)N(C)c1ccccc1C(=O)N2C` [Compound 180, 4-(4-(4-((4-(1-(4-((5,11-dimethyl-6-oxo-6,11-dihydro-5H-benzo[e]pyrimido[5,4-b][1,4]diazepin-2-yl)amino)-3-ethoxyphenyl)piperidine-4-carbonyl)piperazin-1-yl)methyl)phenyl)-5-hydroxy-4H-1,2,4-triazol-3-yl)-5-hydroxy-2-isopropylphenyl dihydrogen phosphate], the EC50 in assay [1] and in assay [3] (72 hr) was below 100 nM in each case.

(Values after patent US20240124460A1, “METHODS AND COMPOSITIONS FOR TARGETED PROTEIN DEGRADATION” (Ranok Therapeutics (Hangzhou) Co. Ltd., priority 2020, published 2024).)
